In the NIST ThermoML archive (doi:10.1021/je200854k):

Conditions: Liquid, Capillary tube (Ostwald / Ubbelohde) method

FCC(F)(F)F [1,1,1,2-tetrafluoroethane]
viscosity [mPa·s]
Conditions | 1000 kPa | 2000 kPa | 5000 kPa | 10000 kPa | 15000 kPa | 20000 kPa | 25000 kPa | 30000 kPa | 35000 kPa | 40000 kPa
258.15 K | 0.3251 | – | 0.3468 | 0.3675 | 0.3885 | 0.4094 | 0.4309 | 0.4502 | 0.4712 | 0.4996
278.14 K | 0.2536 | – | 0.2678 | 0.2859 | 0.3033 | 0.3209 | 0.3381 | 0.3543 | 0.3712 | 0.3885
298.14 K | 0.1962 | – | 0.2108 | 0.2273 | 0.2421 | 0.2567 | 0.2716 | 0.2876 | 0.3017 | 0.3169
318.13 K | – | 0.1549 | 0.1656 | 0.1828 | 0.197 | 0.2111 | 0.2254 | 0.2393 | 0.2511 | 0.2647
338.13 K | – | 0.1152 | 0.1288 | 0.1466 | 0.1618 | 0.1754 | 0.1893 | 0.2007 | – | –

FC(F)(F)CC(F)(F)F [1,1,1,3,3,3-hexafluoropropane]
viscosity [mPa·s]
Conditions | 1000 kPa | 2000 kPa | 5000 kPa | 10000 kPa | 15000 kPa | 20000 kPa | 25000 kPa | 30000 kPa | 35000 kPa | 40000 kPa
253.15 K | 0.5347 | – | 0.5621 | 0.5982 | 0.6363 | 0.671 | 0.7092 | 0.751 | 0.7898 | 0.8347
263.16 K | 0.4612 | – | 0.4857 | 0.5184 | 0.5511 | 0.583 | 0.6154 | 0.6508 | 0.6835 | 0.7189
273.14 K | 0.3999 | – | 0.4237 | 0.452 | 0.4821 | 0.5127 | 0.5412 | 0.5699 | 0.6012 | 0.6317
283.14 K | 0.35 | – | 0.3722 | 0.3989 | 0.4259 | 0.4534 | 0.4798 | 0.5054 | 0.5325 | 0.5603
293.14 K | 0.3074 | – | 0.3281 | 0.3534 | 0.3789 | 0.4034 | 0.4271 | 0.452 | 0.4757 | 0.5014
303.14 K | 0.2708 | – | 0.2906 | 0.3141 | 0.3383 | 0.362 | 0.3838 | 0.4053 | 0.429 | 0.4513
313.14 K | 0.2385 | – | 0.2585 | 0.2817 | 0.3041 | 0.3268 | 0.3467 | 0.3678 | 0.3897 | 0.41
323.13 K | 0.21 | – | 0.2306 | 0.253 | 0.2742 | 0.295 | 0.3155 | 0.3353 | 0.3544 | 0.3744
333.13 K | 0.1844 | – | 0.2046 | 0.2274 | 0.2481 | 0.2683 | 0.2868 | 0.3059 | 0.3248 | 0.3434
343.13 K | – | 0.1669 | 0.1825 | 0.2044 | 0.2255 | 0.2447 | 0.2631 | 0.2805 | 0.2994 | 0.3154
353.13 K | – | 0.1456 | 0.1618 | 0.1858 | 0.2064 | 0.2239 | 0.2427 | 0.2591 | 0.2761 | 0.2925
363.14 K | – | 0.1248 | 0.1432 | 0.1663 | 0.1863 | 0.2051 | 0.2226 | 0.2395 | 0.2555 | 0.2713
373.14 K | – | 0.1074 | 0.1287 | 0.1531 | 0.1718 | 0.1886 | 0.2056 | 0.2222 | 0.2366 | 0.2495

FC(F)CC(F)(F)F [1,1,1,3,3-pentafluoropropane]
viscosity [mPa·s]
Conditions | 1000 kPa | 2000 kPa | 5000 kPa | 10000 kPa | 15000 kPa | 20000 kPa | 25000 kPa | 30000 kPa | 35000 kPa | 40000 kPa
263.15 K | 0.679 | – | 0.7113 | 0.7526 | 0.7951 | 0.8369 | 0.8778 | 0.9236 | 0.9686 | 1.015
273.14 K | 0.5811 | – | 0.6083 | 0.6456 | 0.6801 | 0.717 | 0.7534 | 0.7902 | 0.8293 | 0.8685
283.14 K | 0.4999 | – | 0.5252 | 0.5564 | 0.5887 | 0.6204 | 0.6519 | 0.6847 | 0.7184 | 0.7497
293.14 K | 0.4344 | – | 0.4571 | 0.4859 | 0.5143 | 0.5433 | 0.5704 | 0.5998 | 0.6291 | 0.6589
303.14 K | 0.3799 | – | 0.4011 | 0.4282 | 0.4534 | 0.4796 | 0.5048 | 0.5306 | 0.5573 | 0.5829
313.14 K | 0.3343 | – | 0.3538 | 0.379 | 0.4035 | 0.427 | 0.4502 | 0.4745 | 0.4975 | 0.5211
323.13 K | 0.2952 | – | 0.3139 | 0.3372 | 0.3595 | 0.3816 | 0.4029 | 0.425 | 0.4464 | 0.4694
333.13 K | 0.2601 | – | 0.2788 | 0.3009 | 0.3232 | 0.3433 | 0.3637 | 0.3837 | 0.4048 | 0.4241
343.13 K | 0.2301 | – | 0.2484 | 0.2698 | 0.29 | 0.31 | 0.3304 | 0.3488 | 0.3686 | 0.3872
353.13 K | 0.2053 | – | 0.2226 | 0.2428 | 0.2627 | 0.2819 | 0.2999 | 0.3186 | 0.3361 | 0.3537
363.14 K | – | 0.1838 | 0.1972 | 0.219 | 0.2389 | 0.2561 | 0.2746 | 0.2918 | 0.3084 | 0.325
373.14 K | – | 0.1612 | 0.1758 | 0.1977 | 0.2165 | 0.2346 | 0.2518 | 0.2679 | 0.2839 | –

Cc1ccccc1 [toluene]
viscosity [mPa·s]
Conditions | 248.16 K | 273.15 K | 298.14 K | 323.13 K | 348.13 K
1000 kPa | 1.19 | 0.7764 | 0.5581 | 0.4252 | 0.3356
10000 kPa | 1.285 | 0.8352 | 0.6005 | 0.4563 | 0.3616
20000 kPa | 1.397 | 0.9052 | 0.644 | 0.4908 | 0.3907
30000 kPa | 1.521 | 0.9742 | 0.6909 | 0.5267 | 0.4198
40000 kPa | – | 1.045 | 0.7419 | 0.5662 | 0.4497
